{
  "source": "patent US20140004176A1",
  "about": "“DELIVERY OF TREATMENTS TRANSDERMALLY FOR FUNGAL INFECTIONS AND OTHER INDICATIONS” (Strategic Science & Techologies, priority 2010, published 2014)",
  "origin": "cited, not measured here",
  "data": [
    {"smiles": "C[C@@H](c1ncncc1F)[C@](O)(Cn1cncn1)c1ccc(F)cc1F", "note": "[voriconazole]", "values": [
      {"measurement": "pKa", "value": 1.76}
    ]}
  ]
}
